# Data from patent publication US20040198707A1, “Means and method for hormonal contraception” (priority 2001, published 2004).
# Test: conversion factors for progestogens: amount equivalent to a given amount of levonorgestrel
# Conditions: estimate of the amount of progestogen equivalent to a given amount of levonorgestrel (levonorgestrel = 1)
# Description: In order to determine for a specific biogenic estrogen or synthetic estrogen the amounts that are equivalent to a cited amount of ethinyl estradiol or 17beta-estradiol, the method described by Allen and Doisy may suitably be used (Allen A., Doisy E. A., “An ovarian hormone. Preliminary report on its localization, extraction and partial purification, and action in test animals. JAMA (1923), 81, 819-821). Similarly, in order to determine for a given progestogen the amount equivalent to cited amount of levonorgestrel the method originally described by McPhail can be used (Mc Phail M. K. “The assay of progestin” J Physiol (1934), 83, 145-156). A more recent description of this method can be found in an article written by Overbeek G. A., de Visser J. “A new substance with progestational activity”, Acta Endocrinol (1956), 22,318-329. It is noted that the aforementioned methods will provide useful indications about the anticipated estrogen potency or progestogen potency of a particular hormone. However, to accurately determine the equivalent amounts that are referred to above, it is advisable to additionally conduct in vivo studies in human females.
# For guidance the table below provides the conversion factors for a number of progestogens that may suitably be used in the method of the invention. These conversion factors may be used to calculate, for each progestogen mentioned in the table, an estimate of the amount of said progestogen which is equivalent to a given amount of levonorgestrel.
row,Structure (SMILES),Conversion factor
1,C#C[C@]1(OC(C)=O)CC[C@H]2[C@@H]3CCC4=CC(=NO)CC[C@@H]4[C@H]3CC[C@@]21CC (mixture of isomers) [norgestimate],1.7
2,C[C@]12CCC(=O)C=C1[C@@H]1C[C@@H]1[C@H]1[C@@H]3[C@@H]4C[C@@H]4[C@@]4(CCC(=O)O4)[C@@]3(C)CC[C@@H]12 [drospirenone],20
3,CC(=O)[C@H]1CC[C@H]2[C@@H]3C=CC4=CC(=O)CC[C@@]4(C)[C@@H]3CC[C@]12C [dydrogesterone],133
4,C#C[C@]1(O)CC[C@H]2[C@@H]3CCC4=CC(=O)CC[C@@H]4[C@H]3CC[C@@]21C [norethisterone],7
